Experimental data taken from patent publication US9334246B2, “Substituted triazines for malaria treatment and chemoprophylaxis” (The United States of America, as represented by the …, priority 2013, dated 2016).

Tests used:
Assay type in all cases: cell-based, Plasmodium falciparum
Conditions in all cases: SYBR Green Assay
[1] = system: P. falciparum W2; assay: Malaria SYBR Green Fluorescence Assay, W2 strain
[2] = system: P. falciparum D6; assay: Malaria SYBR Green Fluorescence Assay, D6 strain
[3] = system: P. falciparum C235; assay: Malaria SYBR Green Fluorescence Assay, C235 strain

CS(=O)(=O)c1ccc(-c2nc(N3CCCN(CCO)CC3)nc(C(Cl)(Cl)Cl)n2)cc1 [Cmpd 132]
W2 [1]: 103 ng/mL | D6 [2]: 64 ng/mL | C235 [3]: 200 ng/mL

Clc1ccc(-c2nc(NCCc3ccncc3)nc(C(Cl)(Cl)Cl)n2)cc1 [Cmpd 139]
W2 [1]: 81 ng/mL | D6 [2]: 202 ng/mL | C235 [3]: 320 ng/mL

Clc1ccc(-c2nc(NCc3ccccn3)nc(C(Cl)(Cl)Cl)n2)cc1 [Cmpd 141]
W2 [1]: 237 ng/mL | D6 [2]: 556 ng/mL | C235 [3]: 652 ng/mL

Clc1ccc(-c2nc(NCc3cccnc3)nc(C(Cl)(Cl)Cl)n2)cc1 [Cmpd 142]
W2 [1]: 112 ng/mL | D6 [2]: 306 ng/mL | C235 [3]: 469 ng/mL

Cc1ccc(-c2nc(NCCc3ccncc3)nc(C(Cl)(Cl)Cl)n2)cc1 [Cmpd 145]
W2 [1]: 94 ng/mL | D6 [2]: 168 ng/mL | C235 [3]: 344 ng/mL

COc1ccccc1-c1nc(NCCc2ccncc2)nc(C(Cl)(Cl)Cl)n1 [Cmpd 146]
W2 [1]: 246 ng/mL | D6 [2]: 539 ng/mL | C235 [3]: 804 ng/mL

COc1ccc(-c2nc(NCCc3ccncc3)nc(C(Cl)(Cl)Cl)n2)cc1 [Cmpd 147]
W2 [1]: 77 ng/mL | D6 [2]: 155 ng/mL | C235 [3]: 233 ng/mL

CC(C)(C)c1ccc(-c2nc(NCCc3ccncc3)nc(C(Cl)(Cl)Cl)n2)cc1 [Cmpd 148]
W2 [1]: 151 ng/mL | D6 [2]: 621 ng/mL | C235 [3]: 671 ng/mL

COc1cccc(-c2nc(NCCc3ccncc3)nc(C(Cl)(Cl)Cl)n2)c1 [Cmpd 151]
W2 [1]: 133 ng/mL | D6 [2]: 346 ng/mL | C235 [3]: 549 ng/mL

COc1cccc(-c2nc(NCc3cccnc3)nc(C(Cl)(Cl)Cl)n2)c1 [Cmpd 155]
W2 [1]: 145 ng/mL | D6 [2]: 318 ng/mL | C235 [3]: 614 ng/mL

CC(C)(C)c1ccc(-c2nc(NCc3cccnc3)nc(C(Cl)(Cl)Cl)n2)cc1 [Cmpd 158]
W2 [1]: 92 ng/mL | D6 [2]: 260 ng/mL | C235 [3]: 324 ng/mL

CSc1ccc(-c2nc(NCc3cccnc3)nc(C(Cl)(Cl)Cl)n2)cc1 [Cmpd 160]
W2 [1]: 238 ng/mL | D6 [2]: 789 ng/mL | C235 [3]: 896 ng/mL

COc1ccc(-c2nc(NCc3ccccn3)nc(C(Cl)(Cl)Cl)n2)cc1 [Cmpd 168]
W2 [1]: 338 ng/mL | D6 [2]: 755 ng/mL | C235 [3]: 898 ng/mL

Cc1ccc(-c2nc(NCCc3cccnc3)nc(C(Cl)(Cl)Cl)n2)cc1 [Cmpd 172]
W2 [1]: 106 ng/mL | D6 [2]: 209 ng/mL | C235 [3]: 346 ng/mL

COc1ccc(-c2nc(NCCc3cccnc3)nc(C(Cl)(Cl)Cl)n2)cc1 [Cmpd 174]
W2 [1]: 181 ng/mL | D6 [2]: 430 ng/mL | C235 [3]: 641 ng/mL

CC(C)(C)c1ccc(-c2nc(NCCc3cccnc3)nc(C(Cl)(Cl)Cl)n2)cc1 [Cmpd 175]
W2 [1]: 54 ng/mL | D6 [2]: 110 ng/mL | C235 [3]: 165 ng/mL

CS(=O)(=O)c1ccc(-c2nc(NCc3ccccn3)nc(C(Cl)(Cl)Cl)n2)cc1 [Cmpd 177]
W2 [1]: 186 ng/mL | D6 [2]: 355 ng/mL | C235 [3]: 565 ng/mL

CS(=O)(=O)c1ccc(-c2nc(NCCc3ccncc3)nc(C(Cl)(Cl)Cl)n2)cc1 [Cmpd 178]
W2 [1]: 162 ng/mL | D6 [2]: 392 ng/mL | C235 [3]: 518 ng/mL

CS(=O)(=O)c1ccc(-c2nc(NCCc3cccnc3)nc(C(Cl)(Cl)Cl)n2)cc1 [Cmpd 179]
W2 [1]: 201 ng/mL | D6 [2]: 471 ng/mL | C235 [3]: 680 ng/mL

COc1ccc(-c2nc(NCCc3ccccn3)nc(C(Cl)(Cl)Cl)n2)cc1 [Cmpd 185]
W2 [1]: 63 ng/mL | D6 [2]: 185 ng/mL | C235 [3]: 244 ng/mL

FC(F)(F)c1cccc(-c2nc(NCCc3ccccn3)nc(C(Cl)(Cl)Cl)n2)c1 [Cmpd 186]
W2 [1]: 115 ng/mL | D6 [2]: 494 ng/mL | C235 [3]: 499 ng/mL

ClC(Cl)(Cl)c1nc(NCCc2ccccn2)nc(-c2ccccc2)n1 [Cmpd 188]
W2 [1]: 42 ng/mL | D6 [2]: 176 ng/mL | C235 [3]: 197 ng/mL

ClC(Cl)(Cl)c1nc(NCCCN2CCCC2)nc(-c2ccc(-c3ccccc3)cc2)n1 [Cmpd 197]
W2 [1]: 105 ng/mL | D6 [2]: 128 ng/mL | C235 [3]: 137 ng/mL

ClC(Cl)(Cl)c1nc(-c2ccc(-c3ccccc3)cc2)nc(N2CCCNCC2)n1 [Cmpd 198]
W2 [1]: 40 ng/mL | D6 [2]: 64 ng/mL | C235 [3]: 70 ng/mL

Clc1cc(Cl)cc(-c2nc(N3CCCNCC3)nc(C(Cl)(Cl)Cl)n2)c1 [Cmpd 204]
W2 [1]: 78 ng/mL | D6 [2]: 231 ng/mL | C235 [3]: 214 ng/mL

Clc1cc(Cl)cc(-c2nc(NCc3cccnc3)nc(C(Cl)(Cl)Cl)n2)c1 [Cmpd 209]
W2 [1]: 67 ng/mL | D6 [2]: 122 ng/mL | C235 [3]: 112 ng/mL

Clc1cc(Cl)cc(-c2nc(NCc3ccccn3)nc(C(Cl)(Cl)Cl)n2)c1 [Cmpd 210]
W2 [1]: 72 ng/mL | D6 [2]: 112 ng/mL | C235 [3]: 78 ng/mL

CCN1CCCC(Nc2nc(-c3ccccc3OC)nc(C(Cl)(Cl)Cl)n2)C1 (stereo not drawn) [Cmpd 215]
W2 [1]: 132 ng/mL | D6 [2]: 426 ng/mL | C235 [3]: 248 ng/mL

COc1ccccc1-c1nc(N2CCCNCC2)nc(C(Cl)(Cl)Cl)n1 [Cmpd 218]
W2 [1]: 38 ng/mL | D6 [2]: 104 ng/mL | C235 [3]: 73 ng/mL

ClC(Cl)(Cl)c1nc(NCCc2ccncc2)nc(-c2ccc3ccccc3c2)n1 [Cmpd 230]
W2 [1]: 59 ng/mL | D6 [2]: 246 ng/mL | C235 [3]: 212 ng/mL

COc1cccc(-c2nc(NCCC3CCCN3C)nc(C(Cl)(Cl)Cl)n2)c1 (stereo not drawn) [Cmpd 236]
W2 [1]: 50 ng/mL | D6 [2]: 52 ng/mL | C235 [3]: 60 ng/mL

CN1CCN(c2nc(-c3ccccc3)nc(C(Cl)(Cl)Cl)n2)CC1 [Cmpd 239]
W2 [1]: 125 ng/mL | D6 [2]: 192 ng/mL | C235 [3]: 158 ng/mL

CCN(CC)CCNc1nc(Cc2cccc(OC)c2)nc(C(Cl)(Cl)Cl)n1 [Cmpd 243]
W2 [1]: 123 ng/mL | D6 [2]: 199 ng/mL | C235 [3]: 128 ng/mL

CC(C)(C)c1ccc(-c2nc(NCCN3CCCC3)nc(C(Cl)(Cl)Cl)n2)cc1 [Cmpd 246]
W2 [1]: 59 ng/mL | D6 [2]: 48 ng/mL | C235 [3]: 35 ng/mL

CCN(CC)CCNc1nc(-c2ccccc2-c2ccc(C)cc2)nc(C(Cl)(Cl)Cl)n1 [Cmpd 254]
W2 [1]: 492 ng/mL | D6 [2]: 632 ng/mL | C235 [3]: 462 ng/mL

CCN1CCC(CNc2nc(-c3ccc(Cl)c(Cl)c3)nc(C(Cl)(Cl)Cl)n2)CC1 [Cmpd 257]
W2 [1]: 45 ng/mL | D6 [2]: 54 ng/mL | C235 [3]: 29 ng/mL

CCN1CCC(CNc2nc(-c3cccc(OC)c3)nc(C(Cl)(Cl)Cl)n2)CC1 [Cmpd 258]
W2 [1]: 29 ng/mL | D6 [2]: 50 ng/mL | C235 [3]: 26 ng/mL

CCN1CCC(CNc2nc(-c3ccccc3-c3ccc(C)cc3)nc(C(Cl)(Cl)Cl)n2)CC1 [Cmpd 259]
W2 [1]: 105 ng/mL | D6 [2]: 162 ng/mL | C235 [3]: 113 ng/mL

CCN1CCC(CNc2nc(-c3ccc(C)cc3)nc(C(Cl)(Cl)Cl)n2)CC1 [Cmpd 265]
W2 [1]: 714 ng/mL | D6 [2]: 803 ng/mL | C235 [3]: 672 ng/mL

Cc1ccc(-c2ccccc2-c2nc(NCCN3CCCC3)nc(C(Cl)(Cl)Cl)n2)cc1 [Cmpd 266]
W2 [1]: 474 ng/mL | D6 [2]: 654 ng/mL | C235 [3]: 530 ng/mL

CCN(CC)CCNc1nc(-c2ccc(OC)cc2)nc(C(Cl)(Cl)Cl)n1 [Cmpd 268]
W2 [1]: 259 ng/mL | D6 [2]: 309 ng/mL | C235 [3]: 282 ng/mL

COc1cccc(Cc2nc(N3CCCN(C)CC3)nc(C(Cl)(Cl)Cl)n2)c1 [Cmpd 269]
W2 [1]: 286 ng/mL | D6 [2]: 835 ng/mL | C235 [3]: 627 ng/mL

CSc1ccc(-c2nc(NC(C)(C)CN)nc(C(Cl)(Cl)Cl)n2)cc1 [Cmpd 277]
W2 [1]: 364 ng/mL | D6 [2]: 406 ng/mL | C235 [3]: 312 ng/mL

COc1ccc(-c2nc(NCCN3CCCC3)nc(C(Cl)(Cl)Cl)n2)c2ccccc12 [Cmpd 278]
W2 [1]: 17 ng/mL | D6 [2]: 35 ng/mL | C235 [3]: 48 ng/mL

CCN1CCC(CNc2nc(-c3ccc(OC)c4ccccc34)nc(C(Cl)(Cl)Cl)n2)CC1 [Cmpd 279]
W2 [1]: 20 ng/mL | D6 [2]: 66 ng/mL | C235 [3]: 77 ng/mL

CCN1CCCC(Nc2nc(-c3ccc(OC)c4ccccc34)nc(C(Cl)(Cl)Cl)n2)C1 (stereo not drawn) [Cmpd 280]
W2 [1]: 76 ng/mL | D6 [2]: 138 ng/mL | C235 [3]: 193 ng/mL

COc1ccc(-c2nc(N3CCCNCC3)nc(C(Cl)(Cl)Cl)n2)c2ccccc12 [Cmpd 281]
W2 [1]: 66 ng/mL | D6 [2]: 148 ng/mL | C235 [3]: 205 ng/mL

CC(C)(N)CNc1nc(-c2ccc(Cl)cc2)nc(C(Cl)(Cl)Cl)n1 [Cmpd 284]
W2 [1]: 3 ng/mL | D6 [2]: 12 ng/mL | C235 [3]: 18 ng/mL

CCN(CC)CCNc1nc(-c2ccc(Cl)cc2)nc(C(Cl)(Cl)Cl)n1 [Cmpd 286]
W2 [1]: 2 ng/mL | D6 [2]: 5 ng/mL | C235 [3]: 10 ng/mL

CN1CCCN(c2nc(-c3ccc(Cl)cc3)nc(C(Cl)(Cl)Cl)n2)CC1 [Cmpd 287]
W2 [1]: 60 ng/mL | D6 [2]: 143 ng/mL | C235 [3]: 232 ng/mL

COc1ccccc1Cc1nc(NCC(C)(C)N)nc(C(Cl)(Cl)Cl)n1 [Cmpd 292]
W2 [1]: 34 ng/mL | D6 [2]: 77 ng/mL | C235 [3]: 103 ng/mL

CCN1CCC(CNc2nc(Cc3ccccc3OC)nc(C(Cl)(Cl)Cl)n2)CC1 [Cmpd 293]
W2 [1]: 13 ng/mL | D6 [2]: 48 ng/mL | C235 [3]: 70 ng/mL

CN1CCCC1CCNc1nc(Nc2ccc(OC(F)(F)F)cc2)nc(C(Cl)(Cl)Cl)n1 (stereo not drawn) [Cmpd 295]
W2 [1]: 10 ng/mL | D6 [2]: 10 ng/mL | C235 [3]: 23 ng/mL

CC(C)(N)CNc1nc(Nc2ccc(OC(F)(F)F)cc2)nc(C(Cl)(Cl)Cl)n1 [Cmpd 296]
W2 [1]: 318 ng/mL | D6 [2]: 302 ng/mL | C235 [3]: 460 ng/mL
